The results in this text go back to ChEMBL document CHEMBL4145489, “Synthesis and anti-tumor activity of EF24 analogues as IKKβ inhibitors” (Eur J Med Chem, 2018).

The source made the active and inactive calls. The rule behind the calls is not given here.

Data set [1] deals with MGC-803. Put plainly: Antiproliferative activity against human MGC803 cells after 72 hrs by MTT assay. The format is functional, cell-based. Particulars: MGC-803, 72 h.
In a further data set the test system is A549. Put plainly: Antiproliferative activity against human A549 cells after 72 hrs by MTT assay. The format is functional, cell-based. To be noted: A549, 72 h. A general note: Tetrazolium assays rely on reduction of a dye to a coloured formazan, in cell work by metabolically active cells.
The test system of another data set is HeLa 229. Put plainly: Antiproliferative activity against human HeLa 229 cells after 72 hrs by MTT assay. The class given is functional, cell-based. To be noted: HeLa 229, 72 h.
Data set [2] has as its system SGC-7901. Put plainly: Induction of apoptosis in human SGC7901 cells at 10 uM after 12 hrs by Annexin V-FITC staining-based FACS analysis (reference value: 1.56%). The class given is functional.
Data set [3] concerns SGC-7901. The data set can be described thus: Antiproliferative activity against human SGC7901 cells after 72 hrs by MTT assay. The class given is functional, cell-based. To be noted: SGC-7901, 72 h.
The subject of data set [4] is MGC-803. The data set can be described thus: Induction of apoptosis in human MGC803 cells at 10 uM after 12 hrs by Annexin V-FITC staining-based FACS analysis (reference value: 1.17%). The class given is functional.
The target in data set [5] is T1, Inhibitor of nuclear factor kappa-B kinase subunit beta (Homo sapiens, UniProt O14920).
T1 sequence (O14920 whole entry): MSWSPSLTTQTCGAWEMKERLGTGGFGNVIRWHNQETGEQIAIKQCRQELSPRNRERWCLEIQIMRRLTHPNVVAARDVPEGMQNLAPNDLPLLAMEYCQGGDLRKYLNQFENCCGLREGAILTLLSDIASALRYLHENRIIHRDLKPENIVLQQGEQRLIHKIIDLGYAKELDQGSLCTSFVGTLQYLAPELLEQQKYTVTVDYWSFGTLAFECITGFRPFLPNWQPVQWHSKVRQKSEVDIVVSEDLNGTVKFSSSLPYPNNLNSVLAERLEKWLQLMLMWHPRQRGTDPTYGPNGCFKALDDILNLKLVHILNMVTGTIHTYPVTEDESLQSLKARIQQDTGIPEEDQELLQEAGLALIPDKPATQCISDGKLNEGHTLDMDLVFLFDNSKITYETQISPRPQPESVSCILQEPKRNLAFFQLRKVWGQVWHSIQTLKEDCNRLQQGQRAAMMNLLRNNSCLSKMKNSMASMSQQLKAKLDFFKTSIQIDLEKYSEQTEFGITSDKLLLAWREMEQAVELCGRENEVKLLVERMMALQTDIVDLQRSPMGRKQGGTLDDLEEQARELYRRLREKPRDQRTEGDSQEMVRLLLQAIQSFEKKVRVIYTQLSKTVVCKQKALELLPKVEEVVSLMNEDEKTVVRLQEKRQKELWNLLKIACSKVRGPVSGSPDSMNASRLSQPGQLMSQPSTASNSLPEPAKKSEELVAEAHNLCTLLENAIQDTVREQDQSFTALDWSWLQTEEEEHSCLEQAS
The data set can be described thus: Inhibition of IKKbeta (unknown origin) using FAM-P22 as substrate preincubated for 10 mins followed by substrate addition and measured after 1 hr by mobility shift assay.

Data set [6] concerns SGC-7901. Put plainly: Cell cycle arrest in human SGC7901 cells assessed as decrease in Cdc2 p34 levels after 12 hrs by Western blot analysis. The format is functional, cell-based.
For data set [7], the system named is MGC-803. Put plainly: Cell cycle arrest in human MGC803 cells assessed as decrease in Cdc2 p34 levels after 12 hrs by Western blot analysis. The format is functional, cell-based. A general note: In western blotting, separated proteins are transferred to a membrane and probed.
The test system of data set [8] is Mus musculus. Put plainly: Downregulation of Bcl-2 levels in tumor of athymic nude mouse xenografted with human SGC7901 cells at 10 mg/kg, ip administered every other day for 22 days by Western blot method. The format is functional, organism-based. For orientation: A xenograft is tissue or cells of one species grown in another, often human tumour cells in immunodeficient mice.

The target of data set [9] is T2, Inhibitor of nuclear factor kappa-B kinase subunit beta (Homo sapiens) (UniProt O14920).
T2 sequence (whole entry): T1 sequence (O14920 whole entry)
Put plainly: Inhibition of IKKbeta in human SGC-7901 cells assessed as TNF-alpha induced I-kappa-B-alpha degradation at 1 to 10 uM preincubated for 1 hr followed by TNF-alpha stimulation and measured after 10 mins by Western blot analysis. The class given is cell-based.

The target in data set [10] is T3, Inhibitor of NF-kappa-B kinase alpha/beta (Homo sapiens) (UniProt O14920+O15111). Put plainly: Inhibition of TNF-alpha induced IKKalpha/beta phosphorylation in human MGC-803 cells preincubated for 1 hr followed by TNF-alpha stimulation and measured after 10 mins by Western blot analysis. The class given is cell-based.
In data set [11] the test system is Mus musculus. Put plainly: In vivo inhibition of IKKalpha/beta phosphorylation in tumor of athymic nude mouse xenografted with human SGC7901 cells at 10 mg/kg, ip administered every other day for 22 days by Western blot method. The format is functional, organism-based.
Data set [12] has as its system MGC-803. The data set can be described thus: Induction of apoptosis in human MGC803 cells at 1 uM after 12 hrs by Annexin V-FITC staining-based FACS analysis (reference value: 1.17%). The format is functional.
Data set [13] deals with SGC-7901. Put plainly: Induction of apoptosis in human SGC7901 cells at 5 uM after 12 hrs by Annexin V-FITC staining-based FACS analysis (reference value: 1.56%). The class given is functional.
In data set [14] the test system is SGC-7901. The data set can be described thus: Induction of apoptosis in human SGC7901 cells after 12 hrs by Annexin V-FITC staining-based FACS analysis. The class given is functional, cell-based.
Data set [15] relates to SGC-7901. The data set can be described thus: Induction of apoptosis in human SGC7901 cells assessed as decrease in Bcl-2 levels at 1 to 10 uM after 12 hrs by Western blot analysis. The class given is functional, cell-based.
Data set [16] deals with MGC-803. Put plainly: Cell cycle arrest in human MGC803 cells assessed as decrease in cyclinB1 levels at 1 to 10 uM after 12 hrs by Western blot analysis. The format is functional, cell-based.
The test system of data set [17] is SGC-7901. The data set can be described thus: Cell cycle arrest in human SGC7901 cells assessed as decrease in cyclinB1 levels at 1 to 10 uM after 12 hrs by Western blot analysis. The class given is functional, cell-based.
Data set [18] concerns Mus musculus. The data set can be described thus: In vivo inhibition of IKKalpha/beta in tumor of athymic nude mouse xenografted with human SGC7901 cells assessed as I-kappa-B-alpha degradation at 10 mg/kg, ip administered every other day for 22 days by Western blot method. The format is functional, organism-based.
The test system of data set [19] is SGC-7901. The data set can be described thus: Antitumor activity against human SGC7901 cells xenografted in athymic nude mouse assessed as tumor growth inhibition at 10 mg/kg, ip administered every other day for 22 days. The class given is functional, organism-based.
The subject of data set [20] is MGC-803. Put plainly: Induction of apoptosis in human MGC803 cells after 12 hrs by Annexin V-FITC staining-based FACS analysis. The format is functional, cell-based.
In data set [21] the test system is MGC-803. Put plainly: Induction of apoptosis in human MGC803 cells assessed as decrease in Bcl-2 levels at 1 to 10 uM after 12 hrs by Western blot analysis. The format is functional, cell-based.
The subject of data set [22] is MGC-803. The data set can be described thus: Induction of apoptosis in human MGC803 cells at 5 uM after 12 hrs by Annexin V-FITC staining-based FACS analysis (reference value: 1.17%). The class given is functional.
For data set [23], the system named is Mus musculus. Put plainly: Toxicity in athymic nude mouse xenografted with human SGC7901 cells assessed as body weight loss at 10 mg/kg, ip administered every other day for 22 days. The class given is organism-based. Particulars: in vivo, 528 h.
Data set [24] relates to SGC-7901. Put plainly: Induction of apoptosis in human SGC7901 cells assessed as increase in cleaved caspase-3 levels at 1 to 10 uM after 12 hrs by Western blot analysis. The format is functional, cell-based.
Data set [25] relates to MGC-803. Put plainly: Cell cycle arrest in human MGC803 cells assessed as accumulation of cells at G2/M phase at 1 to 10 uM after 12 hrs by propidium iodide staining-based flow cytometric analysis. The class given is functional.
In data set [26] the target is T2, Inhibitor of nuclear factor kappa-B kinase subunit beta (Homo sapiens). Put plainly: Inhibition of IKKbeta in human MGC-803 cells assessed as TNF-alpha induced I-kappa-B-alpha degradation at 1 to 10 uM preincubated for 1 hr followed by TNF-alpha stimulation and measured after 10 mins by Western blot analysis. The format is cell-based.
Data set [27] deals with MGC-803. The data set can be described thus: Induction of apoptosis in human MGC803 cells assessed as increase in cleaved caspase-3 levels at 1 to 10 uM after 12 hrs by Western blot analysis. The format is functional, cell-based.
Data set [28] has as its system SGC-7901. Put plainly: Induction of apoptosis in human SGC7901 cells at 1 uM after 12 hrs by Annexin V-FITC staining-based FACS analysis (reference value: 1.56%). The format is functional.
In data set [29] the target is T3, Inhibitor of NF-kappa-B kinase alpha/beta (Homo sapiens). Put plainly: Inhibition of TNF-alpha induced IKKalpha/beta phosphorylation in human SGC-7901 cells preincubated for 1 hr followed by TNF-alpha stimulation and measured after 10 mins by Western blot analysis. The class given is cell-based.
In data set [30] the target is T2, Inhibitor of nuclear factor kappa-B kinase subunit beta (Homo sapiens). Put plainly: Inhibition of IKKbeta in human SGC-7901 cells assessed as decrease in TNF-alpha induced p65 nuclear translocation at 10 uM preincubated for 1 hr followed by TNF-alpha stimulation and measured after 1 hr by DAPI staining-based fluorescence microscopic analysis. The class given is cell-based.

The test system of data set [31] is SGC-7901. Put plainly: Cell cycle arrest in human SGC7901 cells assessed as accumulation of cells at G2/M phase at 1 to 10 uM after 12 hrs by propidium iodide staining-based flow cytometric analysis. The class given is functional.

For the molecule `Cc1ccc2nc(NCCN)c3ncc(C)n3c2c1.Cl`, the IC50 stood at 14.2 µM with MGC-803 [1], 9.3 µM in the data set with A549, 9.4 µM with HeLa 229 and 8.3 µM in the data set with SGC-7901 [3]. In addition, the figures for the Activity with SGC-7901 [2] and in the data set on MGC-803 [4] were 19.49% and 12.61%, respectively.
For `O=C1/C(=C/c2ccccc2F)COC/C1=C\c1ccccc1F`, the half-maximal inhibitory concentration (IC50) in [5] stood at 19.6 µM.
For `O=C1/C(=C/c2ccccc2Br)CNC/C1=C\c1ccccc1Br`, the Activity result was “Dose-dependent effect” with SGC-7901 [6]; “Dose-dependent effect” in the data set with MGC-803 [7]; 9.88% in the data set on MGC-803 [12]; 27.9% with SGC-7901 [13]; “Dose-dependent effect” with SGC-7901 [14]; 45.3% in the data set with SGC-7901 [2]. The Activity entry was “Dose-dependent effect” in the data set with MGC-803 [20]; 16.14% in the data set with MGC-803 [22]; “Non-Toxic” in the data set on Mus musculus [23]; 8.95% in the data set with SGC-7901 [28]; 32.1% with MGC-803 [4]. For the same molecule, the half-inhibitory concentration (IC50) was found to be 1.8 µM in the data set with MGC-803 [1], 2.1 µM in the data set on A549, 1.8 µM with HeLa 229 and 1.2 µM with SGC-7901 [3]. Also, the result with Mus musculus [8], in the data set on SGC-7901 [15], in the data set on MGC-803 [16], with SGC-7901 [17], with MGC-803 [21] and with SGC-7901 [24] was Active. Further, the result in the data set on MGC-803 [25], in the data set with MGC-803 [27] and in the data set on SGC-7901 [31] was Active. The inhibition entry (in data set [9]; in the data set with Mus musculus [11]; in the data set on Mus musculus [18]; in [26]; in [30]) was “Active” each time. Besides, the inhibition result in [10] and in data set [29] was “Dose-dependent effect” throughout. In addition, the TGI entry in the data set on SGC-7901 [19] was “Active”.
`O=C1/C(=C/c2c(F)cccc2F)CNC/C1=C\c1c(F)cccc1F`: the concentration for half-maximal inhibition (IC50) in [5] was determined as 14 µM.
As for `O=C1/C(=C/c2ccccc2F)CNC/C1=C\c1ccccc1F`, the half-inhibitory concentration (IC50) with MGC-803 [1] was 2 µM; in the data set on A549, 2.8 µM; with HeLa 229 it was 1.9 µM; with SGC-7901 [3] it was 1 µM.

In general, IC50 refers to the concentration at which inhibition is half-maximal.
